In test [1] the target is T1, AKT1 WT (Homo sapiens, UniProt P31749).
T1 construct: expressed in transfected cells; host or cells: HEK293
The test can be described thus: Live cell AKT1 WT target engagement by NanoBRET competitive probe displacement in HEK293 cells. Format: binding. The settings on record: 2 h at 37° C., read-out: AKT1 WT IC50.

Test [2] deals with T2, AKT1 E17K (Homo sapiens, UniProt P31749, E17K).
T2 construct: expressed in transfected cells; host or cells: HEK293
In words: Live cell AKT1 E17K target engagement by NanoBRET competitive probe displacement in HEK293 cells. Format: binding. The settings on record: 2 h at 37° C. A digest of the protocol: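 Live-cell NanoBRET: HEK293, kinase-NanoLuc fusion, ATP-competitive fluorescent tracer ~EC50, 2 h 37° C, extracellular NanoLuc inhibitor present; IC50 from log(inhibitor)–response Hill fit.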

Test [3] concerns LAPC4 prostate cancer cells, which express the AKT1 E17K allele. In words: Antiproliferative effects in LAPC4 cells (CellTiter Glo, 72 h). Format: cell-based. The settings on record: Homo sapiens, LAPC4, 72 h, read-out: LAPC4 proliferation IC50. A digest of the protocol:
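IC50 values reflect 72 h compound treatment of cells plated at 1,000 per well, with CellTiter Glo luminescence as the viability read-out.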

The target in test [4] is T3, AKT2 (Homo sapiens, UniProt P31751).
T3 construct: expressed in transfected cells; host or cells: HEK293
T3 sequence (P31751 whole entry): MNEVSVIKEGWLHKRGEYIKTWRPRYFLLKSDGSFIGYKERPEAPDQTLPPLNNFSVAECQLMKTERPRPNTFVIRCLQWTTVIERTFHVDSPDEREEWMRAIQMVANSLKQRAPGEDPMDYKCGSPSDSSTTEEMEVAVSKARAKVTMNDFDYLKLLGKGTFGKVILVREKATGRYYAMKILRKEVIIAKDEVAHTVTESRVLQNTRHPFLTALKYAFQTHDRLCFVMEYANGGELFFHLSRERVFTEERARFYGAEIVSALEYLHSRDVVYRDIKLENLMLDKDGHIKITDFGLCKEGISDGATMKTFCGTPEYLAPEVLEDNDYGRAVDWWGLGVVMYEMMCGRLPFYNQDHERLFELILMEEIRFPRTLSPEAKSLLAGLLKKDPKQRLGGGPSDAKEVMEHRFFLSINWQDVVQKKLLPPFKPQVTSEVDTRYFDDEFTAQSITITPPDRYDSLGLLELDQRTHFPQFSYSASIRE
The test can be described thus: Live cell AKT2 target engagement by NanoBRET competitive probe displacement in HEK293 cells. The test is classed as binding. The settings on record: 2 h at 37° C., read-out: AKT2 IC50.

Where [5] appears, read: NanoBRET live cell target engagement, HEK293 cells.
The mark [6] stands for this setting: NanoBRET competitive probe displacement, live HEK293 cells.

Experimental findings from US12624034B2, “Non-covalent modifiers of AKT1 and uses thereof” (Terremoto Biosciences, Inc., priority 2023, dated 2026) are described below.

The structures appear in SMILES notation. pIC50: −log10 of the molar value. Read-outs that look alike come from different tables or passages of the source.

T2 sequence (P31749 whole entry E17K): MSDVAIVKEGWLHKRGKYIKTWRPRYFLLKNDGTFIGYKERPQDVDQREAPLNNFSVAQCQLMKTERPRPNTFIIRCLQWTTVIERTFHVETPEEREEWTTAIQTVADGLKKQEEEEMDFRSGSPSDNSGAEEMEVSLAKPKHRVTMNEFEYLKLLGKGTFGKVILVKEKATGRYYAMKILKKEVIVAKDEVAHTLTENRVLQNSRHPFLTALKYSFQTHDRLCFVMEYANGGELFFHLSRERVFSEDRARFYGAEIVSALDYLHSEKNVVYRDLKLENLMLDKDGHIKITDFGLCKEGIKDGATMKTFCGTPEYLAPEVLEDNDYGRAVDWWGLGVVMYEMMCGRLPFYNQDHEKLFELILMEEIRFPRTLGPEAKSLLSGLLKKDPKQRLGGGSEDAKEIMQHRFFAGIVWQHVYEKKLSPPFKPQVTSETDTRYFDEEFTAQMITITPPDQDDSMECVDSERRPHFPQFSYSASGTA
T1 sequence (P31749 whole entry): as the sequence (P31749 whole entry E17K) above, with K17E counted along it

In the case of `Nc1ncccc1-c1nc2ccc(-n3cccn3)nc2n1-c1ccc2c(c1)CC[C@@H]2NC1CCN(C(=O)c2ccccc2)CC1` [Compound 275], the pIC50 was 7.29 in test [1] (setting [5]), 6.24 in test [2] (setting [5]), 5.36 in test [3] and 5.97 in test [4] (setting [5]).
With `Nc1ncccc1-c1nc2ccc(-n3nccn3)nc2n1-c1ccc2c(c1)CC[C@@H]2NC(=O)c1ccc(C(F)F)nc1` [Compound 65, (S)—N-(5-(2-(2-aminopyridin-3-yl)-5-(2H-1,2,3-triazol-2-yl)-3H-imidazo[4,5-b]pyridin-3-yl)-2,3-dihydro-1H-inden-1-yl)-6-(difluoromethyl)nicotinamide], the pIC50 in test [1] (setting [5]) is 7.71; in test [2] (setting [5]), 6.53; in test [3], 6.03; in test [4] (setting [5]), 5.97.
On to `Nc1ncccc1-c1nc2ccc(-n3cccn3)nc2n1-c1ccc2c(c1)CC[C@@H]2NC1CN(c2ccccn2)C1` [Compound 439], for which the pIC50 in test [1] (setting [6]) was 7.82; in test [2] (setting [6]), 6.18; in test [3] it was 5.42; in test [4] (setting [6]), 6.10.
With `COc1cc(C(=O)N[C@H]2CCc3cc(-n4c(-c5cccnc5N)nc5ccc(-n6nccn6)nc54)ccc32)cnc1C(F)F` [Compound 364], the pIC50 in test [1] (setting [5]) was 7.68; in test [2] (setting [5]) it was 6.59; in test [3], 5.63; in test [4] (setting [5]) it was 5.95.
Taken in the same sequence, the figures for `COc1ncc(C(=O)N[C@H]2CCc3cc(-n4c(-c5cccnc5N)nc5ccc(-n6cccn6)nc54)ccc32)cn1` [Compound 23, (S)—N-(5-(2-(2-aminopyridin-3-yl)-5-(1H-pyrazol-1-yl)-3H-imidazo[4,5-b]pyridin-3-yl)-2,3-dihydro-1H-inden-1-yl)-2-methoxypyrimidine-5-carboxamide] were 8.34, 6.41, 5.92 and 7.33.
Turning to `Nc1ncccc1-c1nc2ccc(-n3ccc(OCCN4CCOCC4)n3)nc2n1-c1ccc2c(c1)CC[C@@H]2NC1CCN(C(=O)C2CC2)CC1` [Compound 505], the pIC50 in test [1] (setting [6]) was 7.75; in test [2] (setting [6]), 6.31; in test [3], 5.36; in test [4] (setting [6]), 6.26.
On to `COc1nccc(C(=O)N[C@H]2CCc3cc(-n4c(-c5cccnc5N)nc5ccc(-n6cccn6)nc54)ccc32)c1Cl` [Compound 281], for which the pIC50 in test [1] (setting [5]) was 8.44; in test [2] (setting [5]), 7.12; in test [3] it was 6.02; in test [4] (setting [5]), 7.74.
`Cn1ccc2c(C(=O)N[C@H]3CCc4cc(-n5c(-c6cccnc6N)nc6ccc(-n7cccn7)nc65)ccc43)[nH]cc2c1=O` [Compound 6, (S)—N-(5-(2-(2-aminopyridin-3-yl)-5-(1H-pyrazol-1-yl)-3H-imidazo[4,5-b]pyridin-3-yl)-2,3-dihydro-1H-inden-1-yl)-5-methyl-4-oxo-4,5-dihydro-2H-pyrrolo[3,4-c]pyridine-1-carboxamide]: the pIC50 in test [1] (setting [5]) is 7.97; in test [2] (setting [5]) it was 6.75; in test [3], 5.78; in test [4] (setting [5]) it was 6.51.
`Nc1ncccc1-c1nc2ccc(-n3cccn3)nc2n1-c1ccc2c(c1)CC[C@@H]2NC(=O)c1ccc(F)c(F)c1` [Compound 262]: the pIC50 in test [1] (setting [5]) was 8.09; in test [2] (setting [5]) it was 7.17; in test [3], 5.63; in test [4] (setting [5]), 6.68.
For the compound `Nc1ncccc1-c1nc2ccc(-n3cccn3)nc2n1-c1ccc2c(c1)CC[C@@H]2NC(=O)c1cncnc1C(F)F` [Compound 116], the pIC50 was 7.99 in test [1] (setting [5]), 6.80 in test [2] (setting [5]), 5.28 in test [3] and 6.52 in test [4] (setting [5]).
Taken in the same sequence, the figures for `CCc1coc(C(=O)N[C@H]2CCc3cc(-n4c(-c5cccnc5N)nc5ccc(-n6cccn6)nc54)ccc32)n1` [Compound 57, (S)—N-(5-(2-(2-aminopyridin-3-yl)-5-(1H-pyrazol-1-yl)-3H-imidazo[4,5-b]pyridin-3-yl)-2,3-dihydro-1H-inden-1-yl)-4-ethyloxazole-2-carboxamide] were 7.63, 6.72, 5.88 and 7.28.
For the compound `Nc1ncccc1-c1nc2ccc(-n3cccn3)nc2n1-c1ccc2c(c1)CC[C@@H]2NC(=O)c1cncs1` [Compound 14, (S)—N-(5-(2-(2-aminopyridin-3-yl)-5-(1H-pyrazol-1-yl)-3H-imidazo[4,5-b]pyridin-3-yl)-2,3-dihydro-1H-inden-1-yl)thiazole-5-carboxamide], the pIC50 is 7.84 in test [1] (setting [5]), 7.64 in test [2] (setting [5]), 5.89 in test [3] and 6.58 in test [4] (setting [5]).
The like results for `Cn1cc(C(=O)N[C@H]2CCc3cc(-n4c(-c5cccnc5N)nc5ccc(-n6cccn6)nc54)ccc32)cn1` [Compound 39, (S)—N-(5-(2-(2-aminopyridin-3-yl)-5-(1H-pyrazol-1-yl)-3H-imidazo[4,5-b]pyridin-3-yl)-2,3-dihydro-1H-inden-1-yl)-1-methyl-1H-pyrazole-4-carboxamide] were, in that order, 7.31, 6.68, 5.28 and 6.12.
Taken in the same sequence, the figures for `Nc1ncccc1-c1nc2ccc(-n3cccn3)nc2n1-c1ccc2c(c1)CC[C@@H]2n1cc(C2CC2)nn1` [Compound 221] were 7.96, 8.24, 5.89 and 6.35.
The like results for `Cc1ccc(C(=O)N[C@H]2CCc3cc(-n4c(-c5cccnc5N)nc5ccc(-n6nccn6)nc54)ccc32)cn1` [Compound 67] were, in that order, 7.82, 6.64, 5.94 and 6.20.
Turning to `Cc1ncc(F)cc1C(=O)N[C@H]1CCc2cc(-n3c(-c4cccnc4N)nc4ccc(-n5nccn5)nc43)ccc21` [Compound 382], the pIC50 in test [1] (setting [5]) is 7.88; in test [2] (setting [5]), 7.03; in test [3] it was 5.38; in test [4] (setting [5]), 6.26.
Turning to `COc1cc(C(=O)N[C@H]2CCc3cc(-n4c(-c5cccnc5N)nc5ccc(-n6nccn6)nc54)ccc32)ccn1` [Compound 321], the pIC50 in test [1] (setting [5]) is 8.16; in test [2] (setting [5]), 6.90; in test [3] it was 6.20; in test [4] (setting [5]) it was 6.68.
The like results for `Nc1ncccc1-c1nc2ccc(-n3cccn3)nc2n1-c1ccc2c(c1)CC[C@@H]2NC(=O)c1cnccn1` [Compound 19, (S)—N-(5-(2-(2-aminopyridin-3-yl)-5-(1H-pyrazol-1-yl)-3H-imidazo[4,5-b]pyridin-3-yl)-2,3-dihydro-1H-inden-1-yl)pyrazine-2-carboxamide] were, in that order, 7.36, 6.78, 5.10 and 5.67.
Regarding `Cn1nc(C(=O)N[C@H]2CCc3cc(-n4c(-c5cccnc5N)nc5ccc(-n6cccn6)nc54)ccc32)c2c1OCC2` [Compound 390], the pIC50 is 7.80 in test [1] (setting [5]), 7.50 in test [2] (setting [5]), below 5.00 in test [3] and 6.98 in test [4] (setting [5]).
Taken in the same sequence, the figures for `Nc1ncccc1-c1nc2ccc(-n3cccn3)nc2n1-c1ccc2c(c1)CC[C@@H]2NC(=O)c1ccnc2sccc12` [Compound 363] were 8.11, 7.24, 5.85 and 7.17.
Consider `Cc1cncc(C(=O)N[C@H]2CCc3cc(-n4c(-c5cccnc5N)nc5ccc(-n6cccn6)nc54)ccc32)c1` [Compound 30, (S)—N-(5-(2-(2-aminopyridin-3-yl)-5-(1H-pyrazol-1-yl)-3H-imidazo[4,5-b]pyridin-3-yl)-2,3-dihydro-1H-inden-1-yl)-5-methylnicotinamide], for which the pIC50 was 7.97 in test [1] (setting [5]), 7.29 in test [2] (setting [5]), 6.14 in test [3] and 6.90 in test [4] (setting [5]).
`CN(C)C(=O)N1CCC(N[C@H]2CCc3cc(-n4c(-c5cccnc5N)nc5ccc(-n6cccn6)nc54)ccc32)CC1` [Compound 394]: the pIC50 in test [1] (setting [6]) is 7.00; in test [2] (setting [6]), below 6.00; in test [3], below 5.00; in test [4] (setting [6]), 5.83.
Taken in the same sequence, the figures for `Nc1ncccc1-c1nc2ccc(-n3cccn3)nc2n1-c1ccc2c(c1)CC[C@@H]2NC(=O)c1cnns1` [Compound 399] were 7.82, 6.75, 5.56 and 6.18.
Take `C#Cc1ccc(C(=O)N[C@H]2CCc3cc(-n4c(-c5cccnc5N)nc5ccc(-n6cccn6)nc54)ccc32)cn1` [Compound 55, (S)—N-(5-(2-(2-aminopyridin-3-yl)-5-(1H-pyrazol-1-yl)-3H-imidazo[4,5-b]pyridin-3-yl)-2,3-dihydro-1H-inden-1-yl)-6-ethynylnicotinamide]: the pIC50 in test [1] (setting [5]) was 7.79; in test [2] (setting [5]), 6.97; in test [3], 5.82; in test [4] (setting [5]) it was 7.31.
The like results for `CC(C)(C)c1cn([C@H]2CCc3cc(-n4c(-c5cccnc5N)nc5ccc(-n6cccn6)nc54)ccc32)nn1` [Compound 320] were, in that order, 7.08, 6.33, 5.65 and 5.63.
